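All cell lines were grown in 96-well plates and treated with compound for 48 hours. The concentration for 50% growth inhibition is given as GI50. TGI: total growth inhibition.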
How the values were obtained:
Experiment in all cases: NCI tumour cell line growth inhibition, 48 h
NCI-H460 lung = test system: NCI-H460 lung
NCI-H522 lung = test system: NCI-H522 lung
CCRF-CEM leukemia = test system: CCRF-CEM leukemia
OVCAR-4 ovarian = test system: OVCAR-4 ovarian
HL-60(TB) leukemia = test system: HL-60(TB) leukemia
U251 CNS = test system: U251 CNS
PC-3 prostate = test system: PC-3 prostate
MOLT-4 leukemia = test system: MOLT-4 leukemia
MDA-MB-435 = test system: MDA-MB-435
SN12C renal = test system: SN12C renal

SMILES | GI50 (NCI-H460 lung) [µM] | TGI (NCI-H460 lung) [µM] | GI50 (NCI-H522 lung) [µM] | TGI (NCI-H522 lung) [µM] | GI50 (CCRF-CEM leukemia) [µM] | TGI (CCRF-CEM leukemia) [µM] | GI50 (OVCAR-4 ovarian) [µM] | TGI (OVCAR-4 ovarian) [µM] | GI50 (HL-60(TB) leukemia) [µM] | TGI (HL-60(TB) leukemia) [µM] | GI50 (U251 CNS) [µM] | TGI (U251 CNS) [µM] | GI50 (PC-3 prostate) [µM] | TGI (PC-3 prostate) [µM] | GI50 (MOLT-4 leukemia) [µM] | TGI (MOLT-4 leukemia) [µM] | GI50 (MDA-MB-435) [µM] | TGI (MDA-MB-435) [µM] | GI50 (SN12C renal) [µM] | TGI (SN12C renal) [µM]
Cc1nccc2c3ccc(OCc4cn(-c5ccc(Cl)cc5)nn4)cc3n(CCCc3ccccc3)c12 | 2.74 | 17.9 | > 33.3 | > 33.3 | 1.75 | > 33.3 | 4.34 | 10.4 | 1.88 | 8.37 | 8.82 | > 33.3 | 2.42 | 16.6 | 6.97 | > 33.3 | 2 | > 33.3 | 8.81 | 31.2
CC(C)CC(=O)Nc1n[nH]c2c1CN(C(=O)C1CCN(C)CC1)C2(C)C | 0.309 | > 10 | 0.467 | 3.99 | 0.95 | > 10 | 2.54 | > 10 | 0.513 | 4.97 | 0.439 | > 10 | 1.33 | > 10 | 0.917 | > 10 | 1.41 | > 10 | 1.27 | > 10
CCN(CC)CCCC(C)Nc1nc(C)cc(Nc2ccc3nc(C)cc(N)c3c2)n1 (stereo not drawn) | 24.3 | 62.8 | 23.9 | 91.9 | 15.3 | 41.6 | 20.9 | 60.8 |  |  | 26.4 | 98.7 | 12.4 | 37.8 |  |  | 14.5 | 29.5 | 37 | > 100
N#CC(C#N)N=Nc1ccc(Br)cc1 | 11.5 | > 100 | 0.543 | 3.41 | 1.53 | 10.7 | 2 | 37.9 | 1.7 | 4.38 | 16.2 | > 100 | 2.42 | 17.7 | 2.72 | > 66.2 | 4.19 | 20 | 2.64 | 9.51
O=Cc1ccc(-c2ccc(-c3nc4ccccc4o3)cc2)s1 | 23.7 | 85.3 | 47.3 | > 100 | 5.68 | > 100 | 34.9 | > 100 | 12.7 | > 100 | 29.1 | 80.8 | > 100 | > 100 | 21.6 | > 100 | 24.1 | 77.9 | 29.4 | 81.3
Cc1[nH]c2ccccc2c1-c1cc(-c2cc(-c3c(C)[nH]c4ccccc34)nc(N)n2)nc(N)n1 |  | > 100 |  | > 100 |  |  |  | > 100 |  | > 100 |  | > 100 |  | > 100 |  | > 100 |  | > 100 |  | > 100
Nc1ccccc1NC(=O)c1ccc(CCCC(=O)Nc2ccc(C3CC3N)cc2)cc1 (stereo not drawn) | 2.63 | > 100 | 0.673 | 5.12 | 2.63 | > 100 | 2.21 | 26.4 | 0.725 | 65.2 | 1.34 | 4.06 | 2.32 | 95.3 | 1.87 | > 100 | 1.57 | 9.05 | 3.62 | > 100
Cc1nc([C@H]2CC[C@H]3[C@@H]4CCC5=CC(=O)CC[C@]5(C)[C@H]4CC[C@]23C)cs1 | 2.67 | > 100 | 7.01 | > 100 | 7.26 | > 100 | 3.02 | > 100 | 1.53 | > 100 | 5.27 | > 100 | 3.9 | > 100 | 2.25 | > 100 | 5.02 | > 100 | > 100 | > 100
COc1ccc(-c2nc(C(=O)c3ccccc3)n(CC(=O)c3ccccc3)c2-c2ccc(OC)cc2)cc1 | > 100 | > 100 | > 100 | > 100 | > 100 | > 100 | > 100 | > 100 | > 100 | > 100 | > 100 | > 100 | > 100 | > 100 | > 100 | > 100 | > 100 | > 100 | > 100 | > 100
Fc1ccc(-c2ncn(C3CCNCC3)c2-c2ccnc(Oc3ccc(F)c(F)c3)n2)cc1 | 5.42 | 13.1 | 5.52 | 10.5 | > 14.9 | 24.2 | 5.91 | 18.3 | 10.6 | 24.6 | 5 | 11.7 | 9.05 | > 19.9 | 8.34 | > 19.1 | 6.44 | > 15.5 | 6.24 | > 14.6
OC(COc1ccc(F)cc1)Cn1cnc2c(Cl)ncnc21 (stereo not drawn) | > 100 | > 100 | > 100 | > 100 | 50.8 | > 100 | > 100 | > 100 | 36.3 | > 100 | > 100 | > 100 | > 100 | > 100 | 32.5 | > 100 | 41.6 | > 100 | > 100 | > 100
Clc1ccc(C2=Nn3c(nnc3-c3cc(Cl)cc(Cl)c3Cl)SC2)cc1 | 41.3 | > 100 | 12.7 | 46.2 | 10.7 | 26 | > 100 | > 100 | 7.26 | 30.7 | 12.7 | 28.3 | 73.4 | > 100 | 38.8 | > 100 | 2.79 | 11.4 | 75 | > 100
COc1cc2c(cc1OC)C(OC)N(C)c1c-2ccc2cc3c(cc12)OCO3 (stereo not drawn) |  | 3.58 |  | 0.766 |  | 13.4 |  | 26 |  | > 36.9 |  | 1.75 |  | > 75 |  | 16.1 |  | > 75 |  | 21.1
CS(=O)(=O)CCNCc1ccc(-c2ccc3ncnc(Nc4ccc(OCc5cccc(F)c5)c(C(F)(F)F)c4)c3c2)o1 | 4.1 | 8.51 | 3.58 | 7.25 | 4.8 | 13.9 | 3.65 | 10.8 | 5.65 | 13.4 | 3.98 | 8.48 | 4.86 | 10.8 | 3.81 | 11.1 | 4.01 | 7.68 | 4.73 | 14.9
CN1C(=O)[C@@H](NC(=O)[C@H](CCC(F)(F)F)[C@H](CCC(F)(F)F)C(N)=O)N=C(c2ccccc2)c2ccccc21 | 83.4 | > 100 | 85.2 | > 100 | 55 | > 100 | 86.8 | > 100 | 62.6 | > 100 | > 100 | > 100 | 55.7 | > 100 | 27.3 | > 100 | 85.6 | > 100 | > 100 | > 100
CCN1C2=NCCN2S(=O)(=O)c2ccccc21 |  | > 100 |  | > 100 |  | > 100 |  | > 100 |  | > 100 |  | > 100 |  | > 100 |  | > 100 |  | > 100 |  | > 100
COC(=O)c1c(O)c([N+](=O)[O-])cc2c1c1c(n2Cc2ccccc2)C(=O)c2ccccc2C1=O | 4.94 | 27.3 | 23.3 | 65.6 | 15.8 | > 100 | 57.3 | > 100 | 25.7 | > 100 | 31 | > 100 | 15.4 | 53.9 |  |  | 6.28 | 28 | 25.5 | 65.7
S=C(Nc1ccc(Cl)cc1)Nc1ccc(-c2nc3ccccc3o2)cc1 | 17.4 | 58.3 | 11 | 26.7 | 0.062 | 19.3 | 25.1 | > 100 | 32.2 | > 100 | 14.1 | 29.7 | 15.4 | 51.4 | 18.5 | > 100 | 18.5 | 43.9 | 13.7 | 28.8
COc1ccc(/C=C2\CC(C)CC3C2=NN(C(C)=O)C3c2ccc(OC)cc2)cc1 (stereo not drawn) | 18.5 | 48.7 | 21.5 | 83.9 | 22 | > 100 | 12.2 | 36.5 | 13.7 | 61 | 14.4 | 31 | 24.2 | > 100 | 16.1 | 50.1 | 19.9 | 49.1 | 18.4 | 38.7
O=C(O)c1ccc(S(=O)(=O)Nc2ccc3oc4c(c3c2)C(=O)CCC4)cc1 | > 100 | > 100 | > 100 | > 100 | > 100 | > 100 | > 100 | > 100 | > 100 | > 100 | > 100 | > 100 | > 100 | > 100 | > 100 | > 100 | > 100 | > 100 | > 100 | > 100
N#CSc1c[nH]c2ccc(/C=C/C(=O)/C=C(/C=C/c3ccc4[nH]cc(SC#N)c4c3)OB(F)F)cc12 | 0.763 | 2.37 | 0.212 | 0.653 | 0.267 | 4.4 | 0.344 | 3.11 | 0.949 | 4.18 | 1.04 | 2.99 | 0.241 | 1.95 | 0.306 | 1.62 | 1.44 | 3.25 | 0.442 | 3.13
CCN(CC)c1ccc2c(c1)Oc1nc(N)c(C#N)c(N)c1C2Sc1ccc(OC)cc1 (stereo not drawn) | 1.94 | 3.81 | 1.79 | 3.38 | 1.75 | 5.47 | 1.57 | 3.02 | 2.28 | 6.44 | 1.42 | 2.81 | 1.71 | 3.38 | 2.37 | 6.21 | 1.79 | 3.4 |  | 
O=C(O)c1cc2ccccc2c(N=Nc2cc(C(F)(F)F)ccc2Cl)c1O |  | > 100 |  | > 100 |  | > 100 |  | > 100 |  | > 100 |  | > 100 |  | > 100 |  | > 100 |  | > 100 |  | > 100
O=c1c(O)cccc2cc(O)c(O)c(O)c12 | 6.86 | > 100 | 3.63 | 14.5 | 7.55 | > 100 |  |  | 21.9 | 77.9 | 6.03 | > 100 | 54.1 | > 100 | 16.9 | > 100 | 3.82 | > 100 | 57.4 | > 100
Nc1nc2cc3ccc(C4CC(O)C(CO)O4)cc3cc2c(=O)[nH]1 (stereo not drawn) | > 100 | > 100 | > 100 | > 100 | 41.4 | > 100 | > 100 | > 100 |  |  | > 100 | > 100 | > 100 | > 100 | > 100 | > 100 | > 100 | > 100 | > 100 | > 100
CC#C/C(=N\OC[C@H]1COCCN1)c1ccc2ncnc(Nc3ccc(OCc4cccc(F)c4)c(Cl)c3)c2c1 |  |  | 0.393 | 2.25 | 1.73 | 3.85 | 1.52 | 3.16 | 2.04 | 4.57 | 1.71 | 3.22 | 1.81 | 3.98 | 1.8 | 3.91 | 1.67 | 3.1 |  | 

Source: PubChem BioAssay (NCI)
